Measurements as given in US20230057984A1, “NORMALIZATION OF CULTURE OF CORNEAL ENDOTHELIAL CELLS” (KYOTO PREFECTURAL PUBLIC UNIVERSITY CORPORATION, priority 2011, published 2023).

Tested on: Cynomolgus monkey corneal endothelial cells
Assay: Western blot of Na+/K+-ATPase and ZO-1 in monkey corneal endothelial cells (Example 3)
Assay type: cell-based
Conditions: monkey CEC treated with SB431542 vs fibroblast phenotype control
Protocol: Next, reaction was allowed for 1 hour at a room temperature with ALEXA FLUOR 488 (INVITROGEN (catalog number: A21206)) and ALEXA FLUOR 594 (INVITROGEN (catalog number: A21203)), diluted with TBS-T by 1,000 fold. After washing with PBS, the sample was encapsulated with VECTASHIELD WITH DAPI (VECTOR LABORATORIES (catalog number: 94010)) onto a slide, followed by observation through confocal microscope (Leica). • Western blot technique: protein extracted by RIPA buffer was electrophoresed with 7.5% polyacrylamide. The separated protein was transferred to a PVDF film (PALL LIFE SCIENCE (catalog number: EH-2222)). […] After washing, bands were detected using an ECL-ADVAVCE Western Blotting Detection Kit (GE healthcare Japan (catalog number: RPN2135V)). […]
P-40 (Nacalai Tesque, catalog number: 23640-94), 0.5% sodium deoxycholate (Nacalai Tesque, catalog number:10712-12), and 0.1% SDS (Nacalai Tesque, catalog number:31607-65)). Thus obtained cell lysate was centrifuged (15,000 rpm, 10 minutes), the supernatant thereof was collected, and the protein was quantitated using a BCA PROTEIN ASSAY KIT (PIERCE, catalog number: 23227). […]

Q: `NC(=O)c1ccc(-c2nc(-c3ccc4c(c3)OCO4)c(-c3ccccn3)[nH]2)cc1` [SB431542] was tested. Which “expression of Na+/K+-ATPase and ZO-1, protein level (Western blot)” value did it give?
A: The value was “strongly enhanced”.
